The target in test [1] is T1, Cathepsin S (Homo sapiens, UniProt P25774). As to the kind of experiment: Cathepsin S assay procedure (inhibition of recombinant enzyme, fluorogenic substrate Z-Val-Val-Arg-AMC). It is filed as biochemical. Conditions: pH5.5, fluorescence at 20 minutes; read-out: pIC50 (negative logarithm of the IC50 concentration) for inhibition of human cathepsin S (converted). How it is done:
EXAMPLE 32 Cathepsin S assay procedure
25µl of a 2mg/l solution of activated recombinant human cathepsin S, in assay buffer, is then added to the well, yielding a final inhibitor concentration of 10µM.
Enzyme activity is determined by measuring the fluorescence of the liberated aminomethylcoumarin at […] using 390nm excitation, at 20 minutes. Percentage enzyme activity is calculated by comparison of this activity to that of a solution containing no inhibitor. Compounds are subsequently subjected to a dose response curve analysis in order to determine IC50 values for active compounds (where IC50 is the concentration of test compound causing 50 % inhibition of the enzymatic activity). Compounds of the invention typically have a pIC50 (negative logarithm of the IC50 concentration) for inhibition of human cathepsin S of more than 6. Most compounds of the invention have a pIC50 of more than 7, such as exemplified by the compounds of examples 1a, 1b, 2a, 7d, 12a, 14a, 14b, 14c, 14d, 14e, 14f, 14g, 14h, 14i, 17, 18.

Test [2] deals with T1, Cathepsin S. The test is described as follows: Cell based lip10 assay (Lip10 accumulation, anti-CD74 ELISA). Details: endogenous in cells; host or cells: Jiyoye human B lymphoblastoid cells. Conditions: Human B lymphoblastoid cells (Jiyoye), 24 hours, relative to E64d / LHVS-treated cells; read-out: pEC50 (negative logarithm of the EC50 concentration) (converted). An excerpt:
In some cases, these cell based activities are up to 100 fold greater than previously disclosed compounds in WO 2007/080191.
EXAMPLE 34 Cathepsin S assay
During normal antigen presentation, Lip10 is proteolytically degraded to enable loading of a peptide fragment and subsequent MHC-II presentation on the surface of antigen presenting cells. The cleavage process is mediated by Cathepsin S. Thus, the Lip10 assay is an in vitro measure of a compound's ability to block cathepsin S and by extension antigen presentation. A compound that causes the accumulation of Lip10 at low concentration would be expected to block presentation of antigens.
Cell based lip10 assay procedure
Human B lymphoblastoid cells (Jiyoye) were cultured in RPMI 1640 medium at a density of 500 000 cells/ml in 24-well plates. Cells were treated with a concentration range of compounds (0.001-10µM) and vehicle alone (DMSO, 0.1% v/v). In order to generate positive control treatments separate wells were treated with 10µM E64d & 0.1µM LHVS. The cells were incubated at 37°C in a humidified incubator containing 5% CO2. After 24 hours the plates were centrifuged at 150 x g for five minutes and the media removed. Cells were lysed by adding 65µl of ice-cold phosphate buffered saline (PBS) containing 1% (v/v) Triton X-100 and protease inhibitors and incubated on ice for 20 minutes. The samples were centrifuged at 18 000 x g for 15 minutes at 4°C and the resulting supernatants collected and stored at -80°C until required. After measurement of protein concentration using a micro-BCA protein assay all samples were diluted to 10µg protein/ml and 50µl of each sample were coated overnight at 4°C onto wells of high protein-binding 96-well plates. The wells were washed once with PBS (200µl/well) and then incubated at room temperature for 2 hours with 10µg/ml mouse anti-CD74 Pin.1 monoclonal antibody (50µl/well) in PBS containing 0.05% (v/v) Tween-20 (PBS-T) and 2% (w/v) BSA (PBS-T/BSA). Unbound antibody was then removed by washing three times with PBS-T and followed by the addition of rabbit anti-mouse IgG antibody conjugated to horseradish peroxidase. After washing five times with PBS-T 100µl of tetramethylbenzidine substrate was added to each well and incubated for 10 minutes on a plate shaker. The reaction was stopped by the addition of 100µl of 1 M hydrochloric acid. Antibody binding was quantified by measuring the optical density (OD, 450nm) using a Molecular Devices Spectramax Plus. The OD of vehicle-only treated cells was removed from all values and the data was expressed as a percentage of the OD generated from the mean E64d / LHVS-treated cells. The potency of compounds (EC50) was measured by calculating the concentration of inhibitor required to generate 50% inhibition relative to E64d / LHVS-treated cells.
(In an ELISA, binding on a coated surface is turned into a signal by an enzyme label.)

Structures can show the parent of a compound that is named as a salt. A value given as a limit tells only on which side of the number the result lay.

T1 sequence (P25774 115-331): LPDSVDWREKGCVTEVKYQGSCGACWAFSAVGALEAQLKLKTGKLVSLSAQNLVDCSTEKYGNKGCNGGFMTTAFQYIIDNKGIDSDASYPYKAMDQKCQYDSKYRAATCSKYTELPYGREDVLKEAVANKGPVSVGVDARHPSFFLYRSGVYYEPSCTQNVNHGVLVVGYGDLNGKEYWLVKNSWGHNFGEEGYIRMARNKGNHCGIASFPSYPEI

Consider `Cn1cnc2c(C#N)nc(-c3ccc(OCCC4CCN(CCF)CC4)c(C(F)(F)F)c3)cc21` [Example 14f, 6-(4-(2-(1-(2-fluoroethyl)piperidin-4-yl)ethoxy)-3-(trifluoromethyl)phenyl)-1-methyl-1H-imidazo[4,5-c]pyridine-4-carbonitrile], for which the IC50 on Cathepsin S [1] was less than 100 nM.

Consider `CCN(C)c1cc(COc2ccc(-c3cc4c(ncn4C)c(C#N)n3)cc2C(F)(F)F)ccn1` [Example 12a, 1-Methyl-6-{4-[(2-(N-ethyl-N-methylamino)-pyridin-4-yl)-methoxy]-3-(trifluoromethyl)-phenyl}-1H-imidazo[4,5-c]pyridine-4-carbonitrile Hydrocloride], for which the EC50 at Cathepsin S [2] was less than 100 nM. Moreover, the IC50 on Cathepsin S [1] was less than 100 nM.

As for `Cn1cnc2c(C#N)nc(-c3ccc(OCCC4CCN(CC(F)F)CC4)c(C(F)(F)F)c3)cc21` [Example 14g, 6-(4-(2-(1-(2,2-difluoroethyl)piperidin-4-yl)ethoxy)-3-(trifluoromethyl)phenyl)-1-methyl-1H-imidazo[4,5-c]pyridine-4-carbonitrile], on Cathepsin S [1], the IC50 is less than 100 nM.

As for `Cn1cnc2c(C#N)nc(-c3ccc(OCCC4CCN(CC(=O)N5CCCC5)CC4)c(C(F)(F)F)c3)cc21` [Example 14e, 6-(4-(2-(1-(2-oxo-2-(pyrrolidin-1-yl)ethyl)piperidin-4-yl)ethoxy)-3-(trifluoromethyl)phenyl)-1-methyl-1H-imidazo[4,5-c]pyridine-4-carbonitrile], at Cathepsin S [1], the IC50 is less than 100 nM.

As to `Cn1cnc2c(C#N)nc(-c3ccc(OCCN4C=NC(C)(C)C4=O)c(C(F)(F)F)c3)cc21` [Example 18, 6-(4-(2-(4,4-dimethyl-5-oxo-4,5-dihydro-1H-imidazol-1-yl)ethoxy)-3-(trifluoromethyl)phenyl)-1-methyl-1H-imidazo[4,5-c]pyridine-4-carbonitrile TFA salt], the IC50 on Cathepsin S [1] was less than 100 nM.

`CC(=O)N(C)CCCOc1ccc(-c2cc3c(ncn3C)c(C#N)n2)cc1C(F)(F)F` [Example 2a, 6-{4-[3-(N-acetyl-N-methylamino)propoxy]-3-(trifluoromethyl)-phenyl}-1-methyl-1H-imidazo[4,5-c]pyridine-4-carbonitrile]: on Cathepsin S [1], the IC50 was less than 100 nM.

Regarding `CCNc1cc(COc2ccc(-c3cc4c(ncn4C)c(C#N)n3)cc2C(F)(F)F)ccn1` [Example 12b, 1-Methyl-6-{4-[(2-(N-ethylamino)-pyridin-4-yl)-methoxy]-3-(trifluoromethyl)-phenyl}-1H-imidazo[4,5-c]pyridine-4-carbonitrile], the EC50 at Cathepsin S [2] was less than 100 nM.

Take `Cn1cnc2c(C#N)nc(-c3ccc(OCCCNS(C)(=O)=O)c(C(F)(F)F)c3)cc21` [Example 1a, N-(3-(4-(4-cyano-1-methyl-1H-imidazo[4,5-c]pyridin-6-yl)-2-(trifluoromethyl)phenoxy)propyl)methanesulfonamide]: on Cathepsin S [1], the IC50 was less than 100 nM.

Turning to `CC(=O)NCCCOc1ccc(-c2cc3c(ncn3C)c(C#N)n2)cc1C(F)(F)F` [Example 1b, 6-[4-(3-acetylaminopropoxy)-3-(trifluoromethyl)-phenyl]-1-methyl-1H-imidazo[4,5-c]pyridine-4-carbonitrile], the IC50 on Cathepsin S [1] was less than 100 nM.

As for `CC(=O)N(C)CCOc1ccc(-c2cc3c(ncn3C)c(C#N)n2)cc1C(F)(F)F` [Example 7d, 1-methyl-6-(4-(2-(N-acetyl-N-methylamino)ethoxy)-3-(trifluoromethyl)phenyl)-1H-imidazo[4,5-c]pyridine-4-carbonitrile], on Cathepsin S [1], the IC50 is less than 100 nM.

Take `Cc1noc(C)c1CN1CCC(CCOc2ccc(-c3cc4c(ncn4C)c(C#N)n3)cc2C(F)(F)F)CC1` [Example 14c, 6-(4-(2-(1-((3,5-dimethylisoxazol-4-yl)methyl)piperidin-4-yl)ethoxy)-3-(trifluoromethyl)phenyl)-1-methyl-1H-imidazo[4,5-c]pyridine-4-carbonitrile]: the EC50 on Cathepsin S [2] is less than 100 nM. Also, the IC50 at Cathepsin S [1] was less than 100 nM.

Regarding `CNc1cc(COc2ccc(-c3cc4c(ncn4C)c(C#N)n3)cc2C(F)(F)F)ccn1` [Example 12c, 1-Methyl-6-{4-[(2-(N-methylamino)-pyridin-4-yl)-methoxy]-3-(trifluoromethyl)-phenyl}-1H-imidazo[4,5-c]pyridine-4-carbonitrile], the EC50 on Cathepsin S [2] was less than 100 nM.

Regarding `Cn1cnc2c(C#N)nc(-c3ccc(OCCC4CCN(Cc5nccs5)CC4)c(C(F)(F)F)c3)cc21` [Example 14i, 1-methyl-6-(4-(2-(1-(thiazol-2-ylmethyl)piperidin-4-yl)ethoxy)-3-(trifluoromethyl)-phenyl)-1H-imidazo[4,5-c]pyridine-4-carbonitrile], the IC50 on Cathepsin S [1] was less than 100 nM.

Take `Cc1cc(CN2CCC(CCOc3ccc(-c4cc5c(ncn5C)c(C#N)n4)cc3C(F)(F)F)CC2)no1` [Example 14b, 1-methyl-6-(4-(2-(1-((5-methylisoxazol-3-yl)methyl)piperidin-4-yl)ethoxy)-3-(trifluoromethyl)phenyl)-1H-imidazo[4,5-c]pyridine-4-carbonitrile]: the EC50 on Cathepsin S [2] is less than 100 nM. At Cathepsin S [1], the IC50 was less than 100 nM.

Turning to `CN(C)C(=O)CN1CCC(CCOc2ccc(-c3cc4c(ncn4C)c(C#N)n3)cc2C(F)(F)F)CC1` [Example 14d, 6-(4-(2-(1-(2-dimethylamino-2-oxo-ethyl)piperidin-4-yl)ethoxy)-3-(trifluoromethyl)phenyl)-1-methyl-1H-imidazo[4,5-c]pyridine-4-carbonitrile], the EC50 at Cathepsin S [2] is less than 100 nM. Also, the IC50 at Cathepsin S [1] is less than 100 nM.

Consider `COCCN1CCC(CCOc2ccc(-c3cc4c(ncn4C)c(C#N)n3)cc2C(F)(F)F)CC1` [Example 14h, 6-(4-(2-(1-(2-methoxyethyl)piperidin-4-yl)ethoxy)-3-(trifluoromethyl)phenyl)-1-methyl-1H-imidazo[4,5-c]pyridine-4-carbonitrile], for which the IC50 on Cathepsin S [1] is less than 100 nM.

On to `Cn1cnc2c(C#N)nc(-c3ccc(OCCC4CCN(Cc5ncco5)CC4)c(C(F)(F)F)c3)cc21` [Example 14a, 1-methyl-6-(4-(2-(1-(oxazol-2-ylmethyl)piperidin-4-yl)ethoxy)-3-(trifluoromethyl)phenyl)-1H-imidazo[4,5-c]pyridine-4-carbonitrile hydrochloride], for which the EC50 on Cathepsin S [2] was less than 100 nM. Moreover, the IC50 on Cathepsin S [1] was less than 100 nM.
